Like-named read-outs stand apart in the source and are kept apart here.
Assays:
[1] = tested on: phosphorylated ERK downstream of KRAS G12C in MIA PaCa2 cells; test: Cell p-ERK detection experiment (HTRF) in MIA PaCa2; format: cell-based, human; conditions: read-out: p-ERK IC50
Outline: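 KRAS G12C-mutant MIA PaCa2 cells (2.5E4 per well, overnight) exposed 2 h to a 3.16-fold compound dilution series at 0.1% DMSO. Lysates probed 4 h with HTRF antibodies to ERK phospho-T202/Y204; inhibition versus DMSO control and blank, IC50 by four-parameter fit.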

[2] = target: T1, KRAS G12C (Homo sapiens, UniProt P01116, G12C); test: KRAS G12C NEA-HTRF experiment (SOS1-catalyzed displacement of GDP by GTP); format: biochemical
T1 construct: purchased Reactionbiology
T1 sequence (P01116 1-188 isoform P01116-2 G12C): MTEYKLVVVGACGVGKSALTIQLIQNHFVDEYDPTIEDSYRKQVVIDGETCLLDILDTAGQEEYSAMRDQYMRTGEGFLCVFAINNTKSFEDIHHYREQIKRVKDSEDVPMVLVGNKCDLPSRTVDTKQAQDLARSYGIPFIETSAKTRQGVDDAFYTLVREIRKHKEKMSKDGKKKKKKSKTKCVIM
Outline: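 His-tagged KRAS G12C preloaded with DY647-GDP was preincubated 15 min at 20 °C with compound, then exchanged with SOS1 (0.2 μM working solution) and GTP (200 μM working solution) for 2 h at 20 °C in the dark. HTRF 665/615 nm ratio with anti-His-Tb was normalised to T0 and no-compound controls; IC50 by four-parameter fit.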

[3] = Homo sapiens, MIA PaCa-2, 2 h, MIA PaCa2 cells, 2 hours with compound, Advance ERK phospho-T202/Y204 HTRF kit
[4] = MIA PaCa2 cells, 2 hours with compound, Advance ERK phospho-T202/Y204 HTRF kit

Row | SMILES | IC50 [1, 3] [nM] | IC50 [2] [nM] | IC50 [1, 4] [nM] | IC50 ([1]; Homo sapiens, MIA PaCa-2, 2 h) [nM]
1 | C=CC(=O)N1CCN2C(=O)c3c(N4CC(=O)N(C)CC4C)nc(-c4c(O)cccc4F)c(Cl)c3OC[C@H]2C1 (single isomer, unassigned) [Z221-1] |  | 14 | 19 | 
2 | C=CC(=O)N1CCN2C(=O)c3c(N4CC(=O)N(C)CC4C)nc(-c4c(O)cccc4F)c(Cl)c3OC[C@H]2C1 (single isomer, unassigned) [Z221-2] |  | 139 | 173 | 
3 | C=CC(=O)N1CCN2C(=O)c3c(N4CC(N(C)C5COC5)CC4(C)C)nc(-c4c(O)cccc4F)c(Cl)c3OC[C@H]2C1 (single isomer, unassigned) [Z331-1] | 6 | 5 |  | 
4 | C=CC(=O)N1CCN2C(=O)c3c(N4CC(N(C)C5COC5)CC4(C)C)nc(-c4c(O)cccc4F)c(Cl)c3OC[C@H]2C1 (single isomer, unassigned) [Z331-2] |  | 7 | 7 | 
5 | C=CC(=O)N1CCN2C(=O)c3c(N4CCN(C)C[C@@H]4C)nc(-c4c(O)cccc4Cl)c(Cl)c3OC[C@H]2C1 (single isomer, unassigned) [Z455-1] |  | 692 | 479 | 
6 | C=CC(=O)N1CCN2C(=O)c3c(N4CCN(C)C[C@@H]4C)nc(-c4c(O)cccc4Cl)c(Cl)c3OC[C@H]2C1 (single isomer, unassigned) [Z455-2] |  | 46.3 | 33 | 
7 | C=CC(=O)N1CCN2C(=O)c3c(N4CC(N5CCOCC5)CC4(C)C)nc(-c4ccccc4F)c(Cl)c3OC[C@H]2C1 (single isomer, unassigned) [Z468-2] |  | 46.5 | 61 | 
8 | C=CC(=O)N1CCN2C(=O)c3c(N4C[C@H](N(C)C)CC4(C)C)nc(-c4ccccc4)c(Cl)c3OC[C@H]2C1 (single isomer, unassigned) [Z655-2] |  | 128 | 196 | 
9 | C=CC(=O)N1CCN2C(=O)c3c(N4C[C@H](N(C)CCF)CC4(C)C)nc(-c4ccccc4F)c(Cl)c3OC[C@H]2C1 (single isomer, unassigned) [Z660-2] |  | 50.5 | 91 | 
10 | C=CC(=O)N1CCN2C(=O)c3c(N4C[C@H](NC)CC4(C)C)nc(-c4ccccc4F)c(Cl)c3OC[C@H]2C1 (single isomer, unassigned) [Z661-2] | 538 | 511 |  | 
11 | C=CC(=O)N1CCN2C(=O)c3c(N4CCN(CC)C[C@@H]4C)nc(-c4c(O)cccc4F)c(Cl)c3OC[C@H]2C1 [Z236] |  | 113 |  | 25

More lines, main results first:

Row | IC50 [1, 3] [nM] | IC50 [2] [nM] | IC50 [1, 4] [nM] | SMILES | IC50 ([1]; Homo sapiens, MIA PaCa-2, 2 h) [nM]
12 | 13 | 6 |  | C=CC(=O)N1CCN2C(=O)c3c(N4C[C@@H](O)CC4(C)C)nc(-c4c(O)cccc4F)c(Cl)c3OC[C@H]2C1 (single isomer, unassigned) [Z81] | 
13 | 136 | 44 |  | C=CC(=O)N1CCN2C(=O)c3c(N4C[C@H](O)CC4(C)C)nc(-c4c(O)cccc4F)c(Cl)c3OC[C@H]2C1 (single isomer, unassigned) [Z82] | 
14 | 163 |  |  | C=CC(=O)N1CCN2C(=O)c3c(Nc4c(C)ccnc4C(C)C)nc(-c4c(O)cccc4F)c(Cl)c3OC[C@H]2C1 [Z5, (6aR)-8-acryloyl-4-chloro-3-(2-fluoro-6-hydroxyphenyl)-1-((2-isopropyl-4-methylpyridin-3-yl)amino)-6,6a,7,8,9,10-hexahydro-12H-pyrazino[2,1-c]pyrido[3,4-f][1,4]oxazepin-12-one] | 
15 | 128 |  |  | C=CC(=O)N1CCN2C(=O)c3c(N(C)c4c(C)ccnc4C(C)C)nc(-c4c(O)cccc4F)c(Cl)c3OC[C@H]2C1 [Z6, (6aR)-8-acryloyl-4-chloro-3-(2-fluoro-6-hydroxyphenyl)-1-((2-isopropyl-4-methylpyridin-3-yl)(methyl)amino)-6,6a,7,8,9,10-hexahydro-12H-pyrazino[2,1-c]pyrido[3,4-f][1,4]oxazepin-12-one] | 
16 |  | 176 |  | C=CC(=O)N1CCN2C(=O)c3c(OC4CCN(C)CC4)nc(-c4c(O)cccc4F)c(Cl)c3OC[C@H]2C1 [Z61, (6aR)-8-acryloyl-4-chloro-3-(2-fluoro-6-hydroxyphenyl)-1-((1-methylpiperidin-4-yl)oxy)-6,6a,7,8,9,10-hexahydro-12H-pyrazino[2,1-c]pyrido[3,4-f][1,4]oxazepin-12-one] | 
17 | 154 |  |  | C=CC(=O)N1CCN2C(=O)c3c(N4CCOC5(CC5)C4)nc(-c4c(O)cccc4F)c(Cl)c3OC[C@H]2C1 [Z63, (6aR)-8-acryloyl-4-chloro-1-(4-oxa-7-azaspiro[2.5]octan-7-yl)-3-(2-fluoro-6-hydroxyphenyl)-6,6a,7,8,9,10-hexahydro-12H-pyrazino[2,1-c]pyrido[3,4-f][1,4]oxazepin-12-one] | 
18 | 88 | 88 |  | C=CC(=O)N1CCN2C(=O)c3c(N4CC[C@@H]4C)nc(-c4c(O)cccc4F)c(Cl)c3OC[C@H]2C1 [Z68, (6aR)-8-acryloyl-1-((S)-2-methylazetidin-1-yl)-4-chloro-3-(2-fluoro-6-hydroxyphenyl)-6,6a,7,8,9,10-hexahydro-12H-pyrazino[2,1-c]pyrido[3,4-f][1,4]oxazepin-12-one] | 
19 | 79 | 79 |  | C=CC(=O)N1CCN2C(=O)c3c(NC(C)(C)C)nc(-c4c(O)cccc4F)c(Cl)c3OC[C@H]2C1 [Z69, (6aR)-8-acryloyl-1-(tert-butylamino)-4-chloro-3-(2-fluoro-6-hydroxyphenyl)-6,6a,7,8,9,10-hexahydro-12H-pyrazino[2,1-c]pyrido[3,4-f][1,4]oxazepin-12-one] | 
20 |  | 138 |  | C=CC(=O)N1CCN2C(=O)c3c(NC(C)C)nc(-c4c(O)cccc4F)c(Cl)c3OC[C@H]2C1 [Z75, (6aR)-8-acryloyl-4-chloro-1-(isopropylamino)-3-(2-fluoro-6-hydroxyphenyl)-6,6a,7,8,9,10-hexahydro-12H-pyrazino[2,1-c]pyrido[3,4-f][1,4]oxazepin-12-one] | 
21 |  | 173 |  | C=CC(=O)N1CCN2C(=O)c3c(N4CCOC5CC54)nc(-c4c(O)cccc4F)c(Cl)c3OC[C@H]2C1 (stereo partly drawn) [Z76, (6aR)-8-acryloyl-4-chloro-1-(2-oxa-5-azabicyclo[4.1.0]heptan-5-yl)-3-(2-fluoro-6-hydroxyphenyl)-6,6a,7,8,9,10-hexahydro-12H-pyrazino[2,1-c]pyrido[3,4-f][1,4]oxazepin-12-one] | 
22 | 23 | 36 |  | C=CC(=O)N1CCN2C(=O)c3c(N4CC(=O)N(C)CC4C)nc(-c4c(O)cccc4F)c(Cl)c3OC[C@H]2C1 (stereo partly drawn) [Z221, (6aR)-8-acryloyl-4-chloro-1-(2,4-dimethyl-5-oxopiperazin-1-yl)-3-(2-fluoro-6-hydroxyphenyl)-6,6a,7,8,9,10-hexahydro-12H-pyrazino[2,1-c]pyrido[3,4-f][1,4]oxazepin-12-one] | 
23 | 138 |  |  | C=CC(=O)N1CCN2C(=O)c3c(N4CCN(C)[C@H](C)C4)nc(-c4c(O)cccc4F)c(Cl)c3OC[C@H]2C1 [Z235, (6aR)-8-acryloyl-4-chloro-1-((R)-3,4-dimethylpiperazin-1-yl)-3-(2-fluoro-6-hydroxyphenyl)-6,6a,7,8,9,10-hexahydro-12H-pyrazino[2,1-c]pyrido[3,4-f][1,4]oxazepin-12-one] | 
24 |  | 167 |  | C=CC(=O)N1CCN2C(=O)c3c(N4CCNC(C)C4C)nc(-c4c(O)cccc4F)c(Cl)c3OC[C@H]2C1 (stereo partly drawn) [Z308, (6aR)-8-acryloyl-4-chloro-1-(2,3-dimethylpiperazin-1-yl)-3-(2-fluoro-6-hydroxyphenyl)-6,6a,7,8,9, 10-hexahydro-12H-pyrazino[2,1-c]pyrido[3,4-f][1,4]oxazepin-12-one] | 
